# Results: PubChem BioAssay (NCI)
# “And” between values parts separate entries of the source, which are not always exact repeats. Identical values can stand only once.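 Five concentrations, 48 hours, 96-well plates. Here, GI50 denotes the concentration required for 50% inhibition of growth. TGI marks complete inhibition of growth.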
# Assays:
# Test in all cases: NCI anticancer screen, dose series, 48 h
# UO-31 renal = tested on: UO-31 renal
# SK-MEL-28 melanoma = tested on: SK-MEL-28 melanoma
# K-562 leukemia = tested on: K-562 leukemia
# SF-539 CNS = tested on: SF-539 CNS
# NCI-H23 lung = tested on: NCI-H23 lung
# ACHN renal = tested on: ACHN renal
# SK-OV-3 ovarian = tested on: SK-OV-3 ovarian
# SF-295 CNS = tested on: SF-295 CNS
# RPMI-8226 leukemia = tested on: RPMI-8226 leukemia
# UACC-257 melanoma = tested on: UACC-257 melanoma
SMILES,GI50 (UO-31 renal) [µM],TGI (UO-31 renal),GI50 (SK-MEL-28 melanoma),TGI (SK-MEL-28 melanoma),GI50 (K-562 leukemia),TGI (K-562 leukemia),GI50 (SF-539 CNS) [µM],TGI (SF-539 CNS),GI50 (NCI-H23 lung),TGI (NCI-H23 lung),GI50 (ACHN renal),TGI (ACHN renal),GI50 (SK-OV-3 ovarian) [µM],TGI (SK-OV-3 ovarian),GI50 (SF-295 CNS) [µM],TGI (SF-295 CNS),GI50 (RPMI-8226 leukemia),TGI (RPMI-8226 leukemia),GI50 (UACC-257 melanoma),TGI (UACC-257 melanoma)
CSc1ccc(/C=C2\C=C(CC(=O)NCc3ccc(C(=O)c4ccccc4)cc3)c3cc(F)ccc32)cc1,0.36,13 µM,0.0688 µM,19.8 µM,0.0393 µM,> 100 µM,0.0381,1.17 µM,0.036 µM,2.89 µM,0.261 µM,12.3 µM,0.0399,0.704 µM,0.0453,6.9 µM,0.0648 µM,> 68.3 µM,0.572 µM,> 100 µM
CNC(=S)N/N=C/c1ccc([N+](=O)[O-])s1,–,> 10 µM,–,> 10 µM,–,> 10 µM,–,> 10 µM,–,> 10 µM,–,> 10 µM,–,> 10 µM,–,> 10 µM,–,> 10 µM,–,> 10 µM
CCN(CC)c1ccc2c(c1)Nc1cc(=C(C#N)C#N)c3ccccc3c1=N2,–,> 100 µM,–,> 100 µM,–,> 100 µM,–,> 100 µM,–,> 100 µM,–,> 100 µM,–,> 100 µM,–,> 100 µM,–,> 100 µM,–,> 100 µM
CCOC(=O)COS(=O)(=O)C(F)(F)F,–,> 100 µM,–,> 100 µM,–,> 100 µM,–,> 100 µM,–,> 100 µM,–,> 100 µM,–,> 100 µM,–,> 100 µM,–,50.5 µM,–,> 100 µM
COc1cc(S(C)(=O)=O)ccc1Nc1nc2ccc(-c3ccc(NC(=O)[C@H](C)c4ccc(F)cc4)cc3)cn2n1,> 100,> 100 µM,> 100 µM,> 100 µM,> 78.7 µM,> 100 µM,> 39.8,> 100 µM,> 100 µM,> 100 µM,> 83.5 µM,> 100 µM,> 100,> 100 µM,> 100,> 100 µM,0.847 µM,> 100 µM,> 100 µM,> 100 µM
Cn1cc(CNCC2CCN(c3ncc(C(=O)NO)cn3)CC2)c2ccccc21,0.0247,0.447 µM,0.0122 µM,0.102 µM,< 0.012 µM,> 46.9 µM,0.021,13.4 µM,0.0218 µM,0.436 µM,0.0229 µM,0.0962 µM,0.0199,0.361 µM,0.0169,0.188 µM,< 0.01 µM,40.5 µM,0.0119 µM,0.363 µM
CCN(CC)CCCC(C)Nc1c2ccc(C)cc2nc2ccc(OC)cc12 (configuration not stated),1.05,2.36 µM,1.87 µM,3.35 µM,2.92 µM,10.6 µM,1.71,3.98 µM,1.84 µM,5.86 µM,0.741 µM,11.7 µM,2.42,15.7 µM,1.47,4.89 µM,1.75 µM,5.05 µM,1.62 µM,3.05 µM
CCN(CC)CCNc1n[n+]([O-])c2ccccc2[n+]1[O-],–,> 79.4 µM and 57.1 µM,–,> 100 µM,–,6.45 µM and 18.5 µM,–,25.7 µM and 42.9 µM,4.31 µM and 9.76 µM,19 µM and 33.7 µM,–,18.4 µM and 21.1 µM,–,32.4 µM,–,39.5 µM and 23.9 µM,–,18.9 µM and 20.5 µM,8.39 µM and 3.54 µM,18.3 µM and 20.4 µM
O=Cc1ccc(-c2cccs2)s1,–,> 100 µM,–,> 100 µM,–,46.4 µM,–,> 100 µM,–,> 68.1 µM,–,> 100 µM,–,> 100 µM,–,> 100 µM,–,> 100 µM,–,15.1 µM
COc1ccc(-c2cn[nH]c2-c2cc(OC)c3c(c2)OCCO3)cc1,0.734,42 µM,2.12 µM,46.3 µM,0.0391 µM,> 100 µM,0.124,0.441 µM,0.599 µM,> 100 µM,1.26 µM,> 100 µM,0.4,35.5 µM,0.0735,12.1 µM,0.373 µM,25.2 µM,14.8 µM,55.4 µM
C[C-](O)O.O/C(=C\[C-](O)c1ccccc1)c1ccccc1.O/C(=C\[C-](O)c1ccccc1)c1ccccc1.[Nd+3] (configuration not stated),3.73,16 µM,12.7 µM,44.5 µM,3.78 µM,16.4 µM,5.5,25.5 µM,4.69 µM,29.4 µM,12 µM,> 100 µM,16.8,64.7 µM,0.372,19.4 µM,6.43 µM,33.5 µM,15.5 µM,42.3 µM
O=C1CCCN1CC#CCN1CCCC1,> 100,> 100 µM,> 100 µM,> 100 µM,> 100 µM,> 100 µM,> 100,> 100 µM,> 100 µM,> 100 µM,> 100 µM,> 100 µM,> 100,> 100 µM,> 100,> 100 µM,> 100 µM,> 100 µM,> 100 µM,> 100 µM
C=C(C=O)CCCC(C)[C@@H]1CCC23CC12CCC1[C@@]2(C)CCC(OC(C)=O)C(C)(C)C2CC(OC2OC(COC(C)=O)C(O)C(O)C2O)[C@]13C (some centres not stated),–,11 µM,–,1.77 µM,–,6.78 µM,–,11.4 µM,–,14.8 µM,–,9.78 µM,–,12 µM,–,11.6 µM,–,3.01 µM,–,11.6 µM
CCOc1ccccc1NC(=O)CCc1nc(=S)[nH][nH]1,–,> 100 µM,–,> 100 µM,–,> 100 µM,–,> 100 µM,–,> 100 µM,–,> 100 µM,–,> 100 µM,–,> 100 µM,–,> 100 µM,–,> 100 µM
CCN1CSC(=S)N(CC)C1,–,> 100 µM,–,> 100 µM,–,> 100 µM,–,76 µM,–,> 100 µM,–,> 100 µM,–,> 100 µM,–,> 100 µM,–,> 100 µM,–,> 100 µM
COC(=O)c1c(-c2ccccc2)sc(-c2cccc3ccccc23)c1C(=O)OC,–,> 100 µM,–,> 100 µM,–,> 100 µM,–,> 100 µM,–,> 100 µM,–,> 100 µM,–,> 100 µM,–,> 100 µM,–,> 100 µM,–,> 100 µM
C=C=C(C(=O)OC)S(=O)c1ccc([N+](=O)[O-])cc1[N+](=O)[O-] (configuration not stated),–,98.2 µM,–,> 70 µM,–,46.3 µM,–,55.3 µM,–,> 87.3 µM,–,> 68.5 µM,–,> 100 µM,–,> 100 µM,–,55.1 µM,–,> 79.9 µM
COc1cc(Cn2c(-c3nonc3N)nc3ccccc32)ccc1C,0.58,> 100 µM,2.91 µM,> 62.7 µM,0.375 µM,> 100 µM,0.226,0.663 µM,1.02 µM,> 55.6 µM,0.726 µM,> 93.8 µM,0.493,32 µM,0.34,5.63 µM,0.493 µM,> 100 µM,0.419 µM,> 100 µM
CCOc1c(Cl)cc(CNC(C)C(O)c2ccccc2)cc1OC (configuration not stated),18,89.6 µM,15.3 µM,30.8 µM,20.9 µM,68.9 µM,16.8,34 µM,31.3 µM,> 100 µM,23.7 µM,> 100 µM,41.1,> 100 µM,16.4,34.6 µM,25.5 µM,57.7 µM,19.1 µM,43.1 µM
Nc1ccc(S(=O)(=O)NCc2nccs2)cc1,–,55.1 µM,–,51.2 µM,–,82.8 µM,–,36.2 µM,–,58.9 µM,–,63.4 µM,–,> 100 µM,–,> 100 µM,–,56.1 µM,–,44.5 µM
CN[C@@H]1C[C@H]2O[C@@](C)([C@@H]1OC)n1c3ccccc3c3c4c(c5c6ccccc6n2c5c31)C(=O)N[C@@H]4O,–,0.0645 µM,–,2.31 µM,0.162 µM,–,0.0196,0.0314 µM and 0.0577 µM,–,1.53 µM,0.00526 µM and < 0.0151 µM,–,0.0467,0.187 µM and 0.28 µM,0.0367,0.3 µM and 0.204 µM,0.0419 µM,–,0.0848 µM,0.3 µM and 1.9 µM
CC[C@@]1(O)C(=O)OCc2c1cc1n(c2=O)Cc2cc3cc(N)ccc3nc2-1,0.0117,0.169 µM and 0.0358 µM,0.183 µM and 0.0563 µM,4.58 µM and 2.2 µM,0.0512 µM and 0.043 µM,–,–,0.0398 µM,–,0.0773 µM and 0.0247 µM,–,0.108 µM and 0.013 µM,0.035,2.64 µM and 0.756 µM,0.00207,0.0717 µM and 0.055 µM,0.106 µM and 0.0994 µM,4.45 µM,0.0441 µM and 0.0423 µM,0.642 µM and 0.375 µM
CCOC(=O)CC1NC(=O)CS1 (configuration not stated),–,> 100 µM,–,> 100 µM,–,> 100 µM,–,> 100 µM,–,> 100 µM,–,> 100 µM,–,> 100 µM,–,> 100 µM,–,60.1 µM,–,> 100 µM
